Article PMC9582125, “Two triphosphate tunnel metalloenzymes from apple exhibit adenylyl cyclase activity” (Frontiers in Plant Science, 2022)

Biological target: T1, HpAC1 (Hippeastrum hybrid cultivar, UniProt E1AQY1)
T1 construct: gene AC1
T1 sequence (E1AQY1 1-206): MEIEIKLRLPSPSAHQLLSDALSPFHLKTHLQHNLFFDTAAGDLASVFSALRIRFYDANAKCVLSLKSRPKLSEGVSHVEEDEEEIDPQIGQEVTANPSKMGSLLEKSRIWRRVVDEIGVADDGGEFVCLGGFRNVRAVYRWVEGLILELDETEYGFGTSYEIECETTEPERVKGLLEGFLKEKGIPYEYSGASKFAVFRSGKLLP
Test: malachite green phosphate release
Assay type: biochemical
Conditions: divalent cation, pH 7.5, 30 °C; hydrolysis

SMILES: O=P(O)(O)OP(=O)(O)OP(=O)(O)O [PPPi]
- malachite green phosphate release: HpAC1 could hydrolyze both organic and inorganic triphosphates like MdTTM2
